Laboratory results reported in patent publication US4188378A, “Anticancer and antiviral activity of 9-β-D-arabinofuranosyl-2-fluoroadenine” (The United States of America as represented by the …, priority 1978, dated 1980).

What was measured:
[1] = tested on: Leukemia L1210; experiment: Therapeutic activity against leukemia L1210 implanted i.p. in mice; assay type: in vivo
Source text: (§1) Inhibition of DNA polymerase is considered to be responsible for the biologic activity of AraA. The levels of F-AraATP attainable in leukemia L1210 cells in mice from the administration of 2-F-AraA are much higher than the level of AraATP atainable in these cells after administration of AraA. As a result of the maintenance of these levels of the inhibitor, F-AraATP, in them, the leukemia cells are effectively destroyed in animals. […] 2-F-AraA was also active against leukemia L1210 when administered by the oral route.
^a 10^5 L1210 ascites cells implanted i.p. on day 0.
^b Treatments reported were selected from a range of dose levels from
lethally toxic to apparently nontoxic.
more than 16% (1/6 treated mice) dying without gross evidence of
progressive leukemia (splenomegaly), except those treated orally, in whic
^c i.p. = intraperitoneal; oral = drug administered directly into
^d % ILS = % increase in life span, compared to untreated control;
excluding 60day survivors.
^e Based on median day of death in dying animals only. Figures in
parentheses based on % survivors.
2-F-AraA was given i.p. or orally on the basis of average mouse body weight. Therapeutic activity based on observed increase in median life span of treated animals over untreated controls and on estimates of the number of viable L1210 cells present at the end of treatment is summarized in Table 2.

[2] = background statement; cited from earlier work
[3] = tested on: leukemias; conditions: background statement; cited from earlier work
[4] = tested on: adenosine deaminase; conditions: cited from earlier work
[5] = tested on: DNA polymerase; experiment: Inhibition of DNA polymerase by the triphosphate; assay type: biochemical; conditions: triphosphate compared with Ara-ATP
Source text: as §1

| SMILES | activity against leukemia L1210 ([1]; AraA under similar conditions) | leukemia cells at the end of treatment ([1]; AraA, 10^5 cells at the beginning) | therapeutic activity against L1210 leukemia ([1]; in the absence of adenosine deaminase inhibitors) | antiviral activity [2] | antileukemic activity [3] | deamination of AraA in vivo to AraH [4] | inhibition of DNA polymerase [5] |
| --- | --- | --- | --- | --- | --- | --- | --- |
| Nc1ncnc2c1ncn2[C@@H]1O[C@H](CO)[C@@H](O)[C@@H]1O [AraA, 9-β-D-arabinofuranosyladenine, reference compound] | essentially devoid of activity | 3×10^8 cells | no significant therapeutic activity | potent antiviral agent | little potential | rapid deamination | – |
| O=c1[nH]cnc2c1ncn2[C@@H]1O[C@H](CO)[C@@H](O)[C@@H]1O [AraH, 9-β-D-arabinofuranosylhypoxanthine] | – | – | – | some antiviral | no antileukemic activity | – | – |
| Nc1nc(F)nc2c1ncn2[C@@H]1O[C@H](COP(=O)(O)OP(=O)(O)OP(=O)(O)O)[C@@H](O)[C@@H]1O [F-AraATP] | – | – | – | – | – | – | as potent an inhibitor of DNA polymerase as Ara-ATP |
